The values below come from US20240251792A1, “WEED CONTROL METHOD” (SYNGENTA CROP PROTECTION AG, priority 2021, published 2024).

Format in all cases: in vivo
In one experiment the test system is AMAPA. In words: Pre-emergence biological efficacy (Table 3). The conditions noted are these: 312 h, 1000 g/ha, after 13 days, read-out: evaluation (100=total damage to plant; 0=no damage to plant). Summed up: (§1)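 Visual damage score (0 = no damage, 100 = total damage) read 13 days after spraying. Pots were sown one day earlier and held at 24/19 °C, 16 h light; the 50 g/l acetone/AMA formulation was diluted in 0.2% Genapol X080 to the final dose.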

For experiment [1], the system named is AMARE. Briefly: Pre-emergence biological efficacy (Table 3). The conditions noted are these: 1000 g/ha, after 13 days; for pest or weed control at 1000 g/ha: Amaranthus retroflexus, 312 h, read-out: evaluation (100=total damage to plant; 0=no damage to plant). In a few lines: as §1
Another experiment deals with ECHCG. Briefly: Pre-emergence biological efficacy (Table 3). Particulars: 1000 g/ha, after 13 days; for pest or weed control at 1000 g/ha: Echinochloa crus-galli, 312 h, read-out: evaluation (100=total damage to plant; 0=no damage to plant). Summed up: as §1
The next experiment deals with IPOHE. In words: Pre-emergence biological efficacy (Table 3). The conditions noted are these: 1000 g/ha, after 13 days; for pest or weed control at 1000 g/ha: Ipomoea hederacea, 312 h, read-out: evaluation (100=total damage to plant; 0=no damage to plant). Summed up: as §1
The next experiment concerns SETFA. In words: Pre-emergence biological efficacy (Table 3). The conditions noted are these: Setaria faberi, 312 h, 1000 g/ha, after 13 days, read-out: evaluation (100=total damage to plant; 0=no damage to plant). In a few lines:
as §1

The test system of a further experiment is ZEAMX. In words: Pre-emergence biological efficacy (Table 3). The conditions noted are these: 1000 g/ha, after 13 days; for plant injury at 1000 g/ha: 312 h, read-out: evaluation (100=total damage to plant; 0=no damage to plant). In a few lines: as §1
A further experiment has as its system weeds and/or crops. Briefly: Post-emergence biological efficacy (Table 4). Particulars: 1000 g/ha, evaluated after 13 days; for pest or weed control at 1000 g/ha: 312 h. In a few lines:
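Weeds and crops were grown 14 days in a glasshouse, then sprayed post-emergence with compound formulated in acetone/F50 and diluted in 0.2% Genapol X080 to the final dose. Damage was scored after 13 days on a 0–100 scale, where 100 is total damage.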

Experiment [2] concerns AMARE. Briefly: Biological efficacy, post-emergence glasshouse test (Table 2). The conditions noted are these: 1000 g/ha, after 12 days. How it is done:
(§2) Seeds of a variety of test species were shown in unsterilised compost in small pots. After cultivation for one day (pre-emergence) or seven days (post-emergence) in controlled conditions in the glasshouse (at 24/16° C., day/night; 14 hours light; 65% humidity) the plants were sprayed with 1 mg of the active ingredient, formulated in 466 μl of a acetone/water/Tween 20 (49.75:49.75:0.5) solution, which is equivalent to 1000 g/ha. Once the foliage was dry, the pots were kept in the glasshouse (at 24/16° C., day/night; 14 hours light; 65% humidity), and were watered twice daily. After 12 days the test was evaluated and scored (100=total damage to plant, 0=no damage to plant).

Experiment [3] has as its system DIGSA. The description is as above. Particulars: 1000 g/ha, after 12 days. How it is done: as §2
Experiment [4] has as its system LOLPE. The experiment is described as above. Particulars: 1000 g/ha, after 12 days. How it is done: as §2
For experiment [5], the system named is STEME. Described as above. Particulars: 1000 g/ha, after 12 days. The method, then:
as §2

The subject of experiment [6] is AMARE. Briefly: Biological efficacy, pre-emergence glasshouse test (Table 2). Particulars: 1000 g/ha, after 12 days. The method, then:
as §2

For experiment [7], the system named is DIGSA. Described as above. The conditions noted are these: 1000 g/ha, after 12 days. The method, then:
as §2

Experiment [8] has as its system LOLPE. Described as above. Particulars: 1000 g/ha, after 12 days. The method, then:
as §2

The subject of experiment [9] is STEME. The description is as above. Particulars: 1000 g/ha, after 12 days. The method, then: as §2
A further experiment relates to ABUTH. Briefly: Pre-emergence biological efficacy (Table 3). The conditions noted are these: after 13 days; for evaluation (100=total damage to plant; 0=no damage to plant): 1000 g/ha. Summed up:
as §1

Experiment [10] concerns STEME. Briefly: Pre-emergence biological efficacy (Table 3). The conditions noted are these: after 13 days; for evaluation (100=total damage to plant; 0=no damage to plant): 1000 g/ha. Summed up:
as §1

The mark [11] stands for this setting: AMAPA, read-out: damage to plant AMAPA (100=total damage; 0=no damage).
The mark [12] stands for this setting: ZEAMX, read-out: damage to plant ZEAMX (100=total damage; 0=no damage).
The mark [13] stands for this setting: Amaranthus retroflexus, AMARE, read-out: damage to plant AMARE (100=total damage; 0=no damage).
Where [14] appears, read: Echinochloa crus-galli, ECHCG, read-out: damage to plant ECHCG (100=total damage; 0=no damage).
Where [15] appears, read: Ipomoea hederacea, IPOHE, read-out: damage to plant IPOHE (100=total damage; 0=no damage).
The mark [16] stands for this setting: Setaria faberi, SETFA, read-out: damage to plant SETFA (100=total damage; 0=no damage).

Each structure is given as a SMILES string. Like-named read-outs stand apart in the source and are kept apart here.

As to `O=C(O)C(F)(F)c1cccc(Cl)c1OC(F)F` [Compound 1-452, 2-[3-Chloro-2-(difluoromethoxy)phenyl]-2,2-difluoro-acetic acid], the pest or weed control at 1000 g/ha was found to be 50% with AMAPA; 50% with AMARE [1]; 10% in the experiment on ECHCG; 70% in the experiment with IPOHE; 30% in the experiment on SETFA; 80% in the experiment on weeds and/or crops (setting [11]). In addition, the pest or weed control at 1000 g/ha was found to be 40% in the experiment with weeds and/or crops (setting [12]); 80% in the experiment with weeds and/or crops (setting [13]); 50% in the experiment on weeds and/or crops (setting [14]); 70% with weeds and/or crops (setting [15]); 50% with weeds and/or crops (setting [16]). Also, the plant injury at 1000 g/ha in the experiment on ZEAMX was 30%.
For `O=C(O)C(F)(F)c1ccccc1OC(F)(F)F` [Compound 1-465, 2,2-Difluoro-2-[2-(trifluoromethoxy)phenyl]acetic acid], the pest or weed control at 1000 g/ha with AMAPA was 70%; in the experiment with AMARE [1], 70%; in the experiment with ECHCG, 20%; in the experiment with IPOHE, 20%; in the experiment on SETFA it was 20%; in the experiment on weeds and/or crops (setting [11]), 80%. Besides, the pest or weed control at 1000 g/ha in the experiment with weeds and/or crops (setting [12]) amounted to 20%; with weeds and/or crops (setting [13]), 80%; in the experiment with weeds and/or crops (setting [14]), 60%; in the experiment on weeds and/or crops (setting [15]) it was 70%; in the experiment on weeds and/or crops (setting [16]), 30%. Moreover, the plant injury at 1000 g/ha in the experiment with ZEAMX came to 20%.
`COc1cc(F)c(C(F)(F)C(=O)O)cc1Cl.N` [Compound 7-31, Ammonium;2-(5-chloro-2-fluoro-4-methoxy-phenyl)-2,2-difluoro-acetate]: the “score (100=total damage to plant, 0=no damage to plant)” value amounted to 100 in the experiment on AMARE [2]; 0 in the experiment on DIGSA [3]; 0 in the experiment on LOLPE [4]; 0 in the experiment with STEME [5]; 0 in the experiment on AMARE [6]; 0 in the experiment with DIGSA [7]. Moreover, the “score (100=total damage to plant, 0=no damage to plant)” value with LOLPE [8] and in the experiment with STEME [9] was 0 throughout. Besides, the “evaluation (100=total damage to plant; 0=no damage to plant)” value in the experiment with ABUTH, in the experiment with AMARE [1], with IPOHE, with STEME [10] and in the experiment on ZEAMX was 0 each time. In addition, in the experiment with weeds and/or crops (ABUTH), the “damage to plant ABUTH (100=total damage; 0=no damage)” value is on record as 0. In addition, the “damage to plant AMARE (100=total damage; 0=no damage)” value in the experiment with weeds and/or crops (AMARE) amounted to 0. Further, the “damage to plant IPOHE (100=total damage; 0=no damage)” value with weeds and/or crops (IPOHE) worked out at 0. Moreover, the “damage to plant STEME (100=total damage; 0=no damage)” value in the experiment on weeds and/or crops (STEME) amounted to 0. The “damage to plant ZEAMX (100=total damage; 0=no damage)” value with weeds and/or crops (ZEAMX) is given as 20.
In the case of `COCc1c(Cl)cccc1C(F)(F)C(=O)O` [Compound 1-436, 2-[3-Chloro-2-(methoxymethyl)phenyl]-2,2-difluoro-acetic acid], the pest or weed control at 1000 g/ha in the experiment with AMAPA worked out at 40%; in the experiment on AMARE [1], 30%; in the experiment with ECHCG it was 0%; in the experiment on IPOHE, 40%; with SETFA, 20%. For the same molecule, the plant injury at 1000 g/ha with ZEAMX turned out to be 0%.
Regarding `Cc1c(C#N)cccc1C(F)(F)C(=O)O` [Compound 1-244, 2-(3-Cyano-2-methyl-phenyl)-2,2-difluoro-acetic acid], the pest or weed control at 1000 g/ha came to 80% with AMAPA; 90% with AMARE [1]; 50% in the experiment with ECHCG; 90% with IPOHE; 90% in the experiment with SETFA; 90% with weeds and/or crops (setting [11]). In addition, the pest or weed control at 1000 g/ha in the experiment with weeds and/or crops (setting [12]) is 60%; with weeds and/or crops (setting [13]), 90%; in the experiment with weeds and/or crops (setting [14]), 60%; in the experiment on weeds and/or crops (setting [15]), 70%; with weeds and/or crops (setting [16]), 70%. The plant injury at 1000 g/ha in the experiment with ZEAMX was determined as 40%.
Take `CCOC(=O)C(F)(F)c1cccc2cccc(C(F)(F)C(=O)OCC)c12` [Compound 3-419, Ethyl 2-[8-(2-ethoxy-1,1-difluoro-2-oxo-ethyl)-1-naphthyl]-2,2-difluoro-acetate]: the “score (100=total damage to plant, 0=no damage to plant)” value is 80 in the experiment with AMARE [2]; 40 with DIGSA [3]; 0 in the experiment on LOLPE [4]; 70 in the experiment on STEME [5]; 80 in the experiment on AMARE [6]; 0 with DIGSA [7]. Further, the “score (100=total damage to plant, 0=no damage to plant)” value was 0 with LOLPE [8] and 60 in the experiment on STEME [9]. The pest or weed control at 1000 g/ha with ABUTH (Abutilon theophrasti, 312 h, read-out: evaluation (100=total damage to plant; 0=no damage to plant)) was 30%; with AMARE [1], 20%; in the experiment on ECHCG, 0%; in the experiment with IPOHE, 10%; with STEME [10] (312 h, read-out: evaluation (100=total damage to plant; 0=no damage to plant)), 40%; in the experiment with weeds and/or crops (STEME, read-out: damage to plant STEME (100=total damage; 0=no damage)), 100%. For the same molecule, the pest or weed control at 1000 g/ha with weeds and/or crops (setting [12]) was found to be 0%; in the experiment with weeds and/or crops (Abutilon theophrasti, ABUTH, read-out: damage to plant ABUTH (100=total damage; 0=no damage)) it was 80%; in the experiment on weeds and/or crops (setting [13]), 20%; in the experiment on weeds and/or crops (setting [14]) it was 0%; in the experiment with weeds and/or crops (setting [15]) it was 70%. Also, the plant injury at 1000 g/ha in the experiment with ZEAMX is 0%.
With `N.N#Cc1cccc(C(F)(F)C(=O)O)c1Cl` [Compound 7-231, Ammonium;2-(2-chloro-3-cyano-phenyl)-2,2-difluoro-acetate], the “score (100=total damage to plant, 0=no damage to plant)” value is recorded as 90 in the experiment on AMARE [2]; 70 in the experiment on DIGSA [3]; 0 with LOLPE [4]; 80 in the experiment with STEME [5]; 90 in the experiment on AMARE [6]; 80 in the experiment on DIGSA [7]. Moreover, the entries for the “score (100=total damage to plant, 0=no damage to plant)” value with LOLPE [8] and in the experiment on STEME [9] were 40 and 100, respectively. In addition, the “evaluation (100=total damage to plant; 0=no damage to plant)” value in the experiment with ABUTH is listed as 90; in the experiment on AMARE [1], 90; with ECHCG it was 10; with IPOHE, 80; in the experiment on STEME [10], 100; with ZEAMX, 50. Besides, the “damage to plant ABUTH (100=total damage; 0=no damage)” value with weeds and/or crops (ABUTH) is 90. For the same molecule, the “damage to plant AMARE (100=total damage; 0=no damage)” value with weeds and/or crops (AMARE) is 90. Further, in the experiment on weeds and/or crops (ECHCG), the “damage to plant ECHCG (100=total damage; 0=no damage)” value turned out to be 10. Moreover, in the experiment on weeds and/or crops (IPOHE), the “damage to plant IPOHE (100=total damage; 0=no damage)” value came to 80. Moreover, the “damage to plant STEME (100=total damage; 0=no damage)” value in the experiment on weeds and/or crops (STEME) came to 100. The “damage to plant ZEAMX (100=total damage; 0=no damage)” value in the experiment on weeds and/or crops (ZEAMX) worked out at 30.
